# Literature values as cited in patent publication EP3958980B1, “TARGETED NOVEL TRIAZOLOTHIADIAZINE DERIVATIVES FOR THE TREATMENT OF LUNG CANCER” (Anadolu Universitesi, priority 2020, dated 2021).
# Experiments:
# [1] = test system: kidney cancer (OU-31) cell line; design: concentration or dose not given beside the values; settings: cited from earlier work
# A549 cells = settings: cited from earlier work
# [2] = test system: hepatocellular carcinoma (Hep3 B), human breast adenocarcinoma (MCF-7), human cervical carcinoma (HeLa); settings: against all tested cancer cells; cited from earlier work
# [3] = test system: 60 cell lines formed of leukemia, NSCLC, melanoma, prostate, ovarian and breast cancers; settings: against all cancer cells; cited from earlier work
# [4] = test system: leukemia (MOLT-4) cell line; settings: cited from earlier work
# [5] = test system: kidney fibroblast (BHK-21) cells; settings: cited from earlier work
# lung cancer (H157) cells = settings: cited from earlier work
# [6] = test system: kidney fibroblast (BHK-21) and lung carcinoma (H-157) cell lines; settings: highest cytotoxic activity; cell line not stated; cited from earlier work
# [7] = test system: human colon epithelial (HT-29) cells; settings: cited from earlier work
smiles,measurement,setting,value
"O=C(CSc1nnc2n1N=C(c1ccc(Br)cc1)CS2)c1ccc(Br)cc1 [1-(4-bromophenyl)-2-((6-(4-bromophenyl)-7H-[1,2,4]triazolo[3,4-b][1,3,4]thiadiazine-3-yl)thio)ethanone]",growth,[1],46.76%
same,inhibition,[1],53.24%
same,growth,A549 cells,58.58%
same,inhibition,A549 cells,41.42%
"CCCCCC[C@@H](O)C/C=C\CCCCCCCc1nnc2n1N=C(c1ccccc1)CS2 [3-[(8Z,11R)-11-hydroxyheptadec-8-enyl]-6-phenyl-7H-1,2,4-triazolo[3,4-b]-1,3,4-thiadiazine]",IC50,[2],< 8.83 µM
"Fc1cc(-c2nnc3n2N=C(c2ccc(Cl)cc2)CS3)c(Cl)cc1Cl [3-(2,4-Dichloro-5-fluorophenyl)-6-(4-chlorophenyl)-1,2,4-triazolo[3,4-b]-1,3,4-thiadiazine]",GI50,[3],1.06 to 25.4 µM
"O=C(CSc1nnc2n1N=C(c1ccc(Cl)cc1)CS2)c1ccc(F)cc1 [2-((6-(4-Chlorophenyl)-7H-[1,2,4]triazolo[3,4-b][1,3,4]thiadiazine-3-yl)thio-1-(4-fluorophenyl)ethanone]",growth,[1],48.14%
same,growth,[4],49.82%
CC[C@]1(O)C[C@H]2CN(CCc3c([nH]c4ccccc34)[C@@](C(=O)OC)(c3cc4c(cc3OC)N(C=O)[C@H]3[C@@](O)(C(=O)OC)[C@H](OC(C)=O)[C@]5(CC)C=CCN6CC[C@]43[C@@H]65)C2)C1 [vincristine],inhibition,[5],74.5%
same,IC50,lung cancer (H157) cells,1.03 ± 0.04 µM
"O=c1oc2ccccc2cc1-c1nnc2n1N=C(c1ccc(-c3ccccc3)cc1)CS2 [3-(6-(Biphenyl-4-yl)-7H-[1,2,4]triazolo[3,4-b][1,3,4]-thiadiazine-3-yl)-2H-chromene-2-one]",IC50,[6],1.01 ± 0.12 µM
"COc1cccc(C2=Nn3c(nnc3-c3ccncc3)SC2)c1 [6-(3-Methoxyphenyl)-3-(pyridine-4-yl)-7H-[1,2,4]triazolo[3,4-b][1,3,4]thiadiazine]",inhibition,[5],73.3%
"Clc1ccc(C2=Nn3c(nnc3-c3cccnc3)SC2)cc1Cl [6-(3,4-Dichlorophenyl)-3-(pyridine-3-yl)-7H-[1,2,4]triazolo[3,4-b][1,3,4]thiadiazine]",IC50,lung cancer (H157) cells,0.96 ± 0.43 µM
"CCCCC/C=C\CC[C@H](O)CCCCCCCc1nnc2n1N=C(c1ccccc1)CS2 [3-[(8R,11Z)-8-hydroxyheptadec-11-enyl]-6-phenyl-7H-1,2,4-triazolo[3,4-b]-1,3,4-thiadiazine]",IC50,[2],< 8.83 µM
"CS(=O)(=O)c1ccc(Cc2nnc3n2N=C(c2ccc(-c4ccccc4)cc2)CS3)cc1 [6-(biphenyl-4-yl)-3-(4-(methylsulfonyl)benzyl)-7H-[1,2,4]triazolo[3,4-b][1,3,4]thiadiazine]",IC50,[7],12.5 µM
"CS(=O)(=O)c1ccc(Cc2nnc3n2N=C(c2ccccc2)CS3)cc1 [3-(4-(methylsulfonyl)benzyl)-6-phenyl-7H-[1,2,4]triazolo[3,4-b][1,3,4]thiadiazine]",IC50,[7],25 µM
